From patent US9163040B2, “Substituted bisphenyl butanoic phosphonic acid derivatives as NEP inhibitors” (NOVARTIS AG, priority 2013, dated 2015) come the findings set out here.

In assay [1] the target is recombinant human neutral endopeptidase (Homo sapiens (Human), UniProt P08473). Kind of assay: in vitro inhibition of recombinant human neutral endopeptidase (fluorescence lifetime assay). It counts as biochemical. The following applies: 1 hour pre-incubation, read after 1 hour at room temperature, pH 7.4; read-out: Human NEP IC50. An excerpt:
The activity of a compound according to the present invention can be assessed by the following in vitro and in vivo methods and/or by the following in vitro and in vivo methods well-described in the art. See Doering K, Meder G, Hinnenberger M, Woelcke J, Mayr L M, Hassiepen U, (2009) “A fluorescence lifetime-based assay for protease inhibitor profiling on human kallikrein 7”, Biomol Screen, January; 14(1):1-9.
In particular, the in vitro inhibition of recombinant human neutral endopeptidase can be determined as follows:
Recombinant human neutral endopeptidase (expressed in insect cells and purified using standard methods, final concentration 7 pM) is pre-incubated with test compounds at various concentrations for 1 hour at room temperature in 10 mM sodium phosphate buffer at pH 7.4, containing 150 mM NaCl and 0.05% (w/v) CHAPS. The enzymatic reaction is started by the addition of a synthetic peptide substrate Cys(PT14)-Arg-Arg-Leu-Trp-OH to a final concentration of 0.7 μM. Substrate hydrolysis leads to an increase in fluorescence lifetime (FLT) of PT14 measured by means of a FLT reader as described by Doering et al. (2009) as referenced supra. The effect of the compound on the enzymatic activity was determined after 1 hour (t=60 min) incubation at room temperature. […]

Assay [2] has as its system Aβ(1-40) peptide concentrations in cerebrospinal fluid. Kind of assay: Aβ model: CSF Aβ after oral dosing, related to plasma ANP increase by exposure-response regression. To be noted: rats, p.o.; for CSF Aβ (% vehicle control): 5 hr post-dosing; for fold higher % increases in CSF Aβ compared with Example 1: plasma ANP 200 to 240% of baseline. It counts as in vivo, rat. The procedure: The relative CNS and peripheral therapeutic activities of NEP inhibitors were evaluated in two nonclinical animal models. Compounds or their vehicle were administered orally to conscious rats, and either the increase in Aβ(1-40) peptide concentrations in cerebrospinal fluid (CSF; “Aβ model”) or the increase in plasma levels of the NEP substrate, atrial natriuretic peptide (ANP; “ANP potentiation model”) were determined. Thus, NEP inhibitors that elicit no or small increases in CSF Aβ at a given increase in plasma ANP may have an advantage over ones that trigger large elevations in Aβ.
CNS effects of NEP inhibitors were assessed in a different rat model (“Aβ model”). In this study, we have measured cerebrospinal fluid (CSF) levels of Aβ as a sensitive indicator of CNS Aβ concentrations (Kwasi G. Mawuenyega, 2010, Science, Vol 330, 1774)).
Experiments were conducted in naïve adult, male, WH rats purchased from Charles River Labs (body weights: 495±53 g, mean±SD; age: 8.5-12 months) that were housed and fed as described above. Rats were treated by oral gavage with 1 mL/kg of vehicle (0.5% methylcellulose+0.1% Tween 80) or a selected dose of NEP inhibitor between 7:30 and 10:00 am. Five hours later, rats were anesthetized with isoflurane, a laparotomy was performed, and an abdominal aortic blood sample was obtained on EDTA. Blood samples were centrifuged at 4° C. and 20 K g to separate plasma. Plasma samples were aliquoted and frozen (−70° C.) for later analysis of plasma compound levels. After exsanguination of the rat, the skin and muscle overlying the cisterna magna were retracted. A sample of CSF was collected by direct needle puncture through the exposed dura into the cisterna magna. CSF was transferred to pre-chilled (on ice) low-binding tubes (Protein LoBind tubes, 1.5 mL, Order No. 022431081, Eppendorf) using low-binding pipette tips (VWR Catalog #37001-164) as quickly as possible to minimize Aβ aggregation and adherence to the devices. CSF samples were frozen (−70° C.) for later analysis of Aβ levels
Aβ40 in CSF was quantified using the MesoScale Discovery (MSD, Gaithersburg, Md.) 96-well MULTI-ARRAY Human/Rodent (4G8) Aβ40 Ultra-Sensitive Kit (K110FTE-2). The assay was done according to the manufacturer's instructions except for the standard curve and the sample preparation. A-10 μL aliquot of each CSF sample was mixed with 190 μL 1% BSA/1× Tris solution (“Blocker A” from kit) for a 1:20 CSF dilution. Synthetic Aβ1-40 peptide (from kit) was serially diluted in 1% BSA/1× Tris solution to obtain standards from 10,000-10 pg/mL for an 8-point standard curve.
MSD MULTI-SPOT Aβ40 peptide plates from the kit were incubated for 1 hour after pipetting 150 μL/well 1% BSA/1× Tris solution. The plates were washed 3 times with 400 μL 1× Tris wash buffer (from kit) using a BioTek EL406 automated plate washer (Winooski, Vt.). For CSF samples and standards, 25 μL of a 1×SULFO-TAG 4G8 detection antibody/1× “Blocker G”/1% BSA/1× Tris solution (“detection antibody solution” from kit) was pipetted into the plate. CSF samples and standards were pipetted at 25 μL/well into the plates immediately following detection antibody solution additions. The plates were incubated for 2 hours and washed 3 times with 400 μL 1× Tris wash buffer using the EL406 automated plate washer. “Read buffer T” (from kit), 1×150 μL/well, was pipetted into the plates. The MSD plates were read immediately on the MSD SECTOR Imager 6000 reader.
Standards were assayed in triplicate. CSF samples were assayed in duplicate. Curve fitting, back-calculation, % recovery, and interpolation of sample concentrations were performed using MSD DISCOVERY WORKBENCH Data Analysis Tools 3.0 Software. Signal generated by the standards was plotted and fit using the 4-parameter logistical curve fitting option with a 1/y^2 weighting function. Sample pg/mL concentrations were interpolated from the fit curve. […]

Where [3] appears, read: at plasma compound concentration corresponding to plasma ANP 200 % baseline.
[4] abbreviates: at plasma compound concentration corresponding to plasma ANP 210 % baseline.
The mark [5] stands for this setting: at plasma compound concentration corresponding to plasma ANP 220 % baseline.
[6] abbreviates: at plasma compound concentration corresponding to plasma ANP 230 % baseline.
Where [7] appears, read: at plasma compound concentration corresponding to plasma ANP 240 % baseline.

Chain of recombinant human neutral endopeptidase (P08473 whole entry): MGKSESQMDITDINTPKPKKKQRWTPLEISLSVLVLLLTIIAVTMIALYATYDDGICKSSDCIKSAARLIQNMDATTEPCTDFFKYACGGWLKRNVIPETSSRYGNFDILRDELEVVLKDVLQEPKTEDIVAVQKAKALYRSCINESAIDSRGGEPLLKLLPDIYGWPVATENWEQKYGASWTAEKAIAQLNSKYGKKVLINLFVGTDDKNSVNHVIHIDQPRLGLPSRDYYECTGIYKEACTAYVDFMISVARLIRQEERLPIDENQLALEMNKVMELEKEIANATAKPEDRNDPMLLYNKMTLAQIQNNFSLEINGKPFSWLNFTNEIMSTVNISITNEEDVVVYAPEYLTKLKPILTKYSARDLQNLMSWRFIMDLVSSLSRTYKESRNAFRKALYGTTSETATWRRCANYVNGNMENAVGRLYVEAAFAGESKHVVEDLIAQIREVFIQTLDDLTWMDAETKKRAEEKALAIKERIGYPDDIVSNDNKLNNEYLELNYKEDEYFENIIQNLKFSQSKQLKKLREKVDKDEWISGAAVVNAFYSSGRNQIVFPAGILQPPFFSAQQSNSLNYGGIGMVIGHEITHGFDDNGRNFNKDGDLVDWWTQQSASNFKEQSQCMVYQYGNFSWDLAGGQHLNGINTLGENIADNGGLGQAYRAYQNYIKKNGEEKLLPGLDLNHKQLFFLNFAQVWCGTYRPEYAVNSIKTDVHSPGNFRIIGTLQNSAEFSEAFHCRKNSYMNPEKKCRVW

The IC50 is the concentration that inhibits the measured activity by half. Turning to `O=C(O)C[C@@H](Cc1ccc(-c2cc(Cl)ccc2F)cc1)NC(=O)CCP(=O)(O)O` [Example 2, (R)-4-(5′-chloro-2′-fluoro-[1,1′-biphenyl]-4-yl)-3-(3-phosphonopropanamido)butanoic acid], the IC50 in assay [1] was 0.11 nM.

As for `CCOC(=O)C[C@@H](Cc1ccc(-c2cc(Cl)ccc2F)cc1)NC(=O)CCC(=O)O` [Example 1-17 (WO2010/136493)], the “CSF Aβ (% vehicle control)” value is recorded as 156 % vehicle control in assay [2] (setting [3]); 179 % vehicle control in assay [2] (setting [4]); 202 % vehicle control in assay [2] (setting [5]); 225 % vehicle control in assay [2] (setting [6]); 248 % vehicle control in assay [2] (setting [7]). In addition, the “fold higher % increases in CSF Aβ compared with Example 1” value in assay [2] came to 4 fold.

Turning to `CC(OC(=O)C[C@@H](Cc1ccc(-c2cc(Cl)ccc2F)cc1)NC(=O)CCP(=O)(O)O)OC(=O)OC1CCCCC1` (stereo partly drawn) [Example 1], the “CSF Aβ (% vehicle control)” value in assay [2] (setting [3]) amounted to 114 % vehicle control; in assay [2] (setting [4]) it was 120 % vehicle control; in assay [2] (setting [5]), 126 % vehicle control; in assay [2] (setting [6]), 132 % vehicle control; in assay [2] (setting [7]) it was 139 % vehicle control.

Regarding `CCOC(=O)C[C@@H](Cc1ccc(-c2cccc(Cl)c2)cc1)NC(=O)CCC(=O)O` [Example 1-2 (WO2010/136493)], the “CSF Aβ (% vehicle control)” value in assay [2] (setting [3]) is 225 % vehicle control; in assay [2] (setting [4]), 242 % vehicle control; in assay [2] (setting [5]), 260 % vehicle control; in assay [2] (setting [6]), 211 % vehicle control; in assay [2] (setting [7]), 295 % vehicle control. The “fold higher % increases in CSF Aβ compared with Example 1” value in assay [2] is 5- to 9 fold.
